A word on the IC50: it is the point on the concentration scale where inhibition reaches its midpoint. A higher IC50 goes with lower potency.

Assay [1] deals with Colo205. Kind of assay: Inhibition of cell proliferation (CellTiter-Glo or InCell analyzer), Colo205. The class given is cell-based. Particulars: Homo sapiens, COLO 205, 72 h / 3 days, values given as IC50 category. Put shortly:
In one
A general note: ATP-based viability assays read luminescence as a measure of living cells.

For assay [2], the target named is ALK (Homo sapiens, UniProt Q9UM73). Kind of assay: ALK enzyme assay (HTRF). The conditions noted are these: 0.25 nM ALK, 15.0 μM ATP, values given as pIC50 category. The class given is biochemical. Put shortly:
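Final compound range 0.00017 to 10 μM (twelve 1:3 dilutions). Kinase reaction with ATP and biotinylated synthetic peptide runs 120 min at 20° C, stopped with EDTA; phosphotyrosine detected by HTRF after 60 min. Inhibition referenced to DMSO (1%) and EDTA (0.1 M) controls, curve-fitted.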
For orientation: In TR-FRET formats the signal depends on donor and acceptor labels being close together.

Assay [3] concerns NCI-H929. Kind of assay: Inhibition of cell proliferation (CellTiter-Glo or InCell analyzer), NCI-H929. The conditions noted are these: Homo sapiens, 72 h / 3 days, values given as IC50 category. The class given is cell-based. Put shortly: In one

ALK, sequence (Q9UM73 19-1620): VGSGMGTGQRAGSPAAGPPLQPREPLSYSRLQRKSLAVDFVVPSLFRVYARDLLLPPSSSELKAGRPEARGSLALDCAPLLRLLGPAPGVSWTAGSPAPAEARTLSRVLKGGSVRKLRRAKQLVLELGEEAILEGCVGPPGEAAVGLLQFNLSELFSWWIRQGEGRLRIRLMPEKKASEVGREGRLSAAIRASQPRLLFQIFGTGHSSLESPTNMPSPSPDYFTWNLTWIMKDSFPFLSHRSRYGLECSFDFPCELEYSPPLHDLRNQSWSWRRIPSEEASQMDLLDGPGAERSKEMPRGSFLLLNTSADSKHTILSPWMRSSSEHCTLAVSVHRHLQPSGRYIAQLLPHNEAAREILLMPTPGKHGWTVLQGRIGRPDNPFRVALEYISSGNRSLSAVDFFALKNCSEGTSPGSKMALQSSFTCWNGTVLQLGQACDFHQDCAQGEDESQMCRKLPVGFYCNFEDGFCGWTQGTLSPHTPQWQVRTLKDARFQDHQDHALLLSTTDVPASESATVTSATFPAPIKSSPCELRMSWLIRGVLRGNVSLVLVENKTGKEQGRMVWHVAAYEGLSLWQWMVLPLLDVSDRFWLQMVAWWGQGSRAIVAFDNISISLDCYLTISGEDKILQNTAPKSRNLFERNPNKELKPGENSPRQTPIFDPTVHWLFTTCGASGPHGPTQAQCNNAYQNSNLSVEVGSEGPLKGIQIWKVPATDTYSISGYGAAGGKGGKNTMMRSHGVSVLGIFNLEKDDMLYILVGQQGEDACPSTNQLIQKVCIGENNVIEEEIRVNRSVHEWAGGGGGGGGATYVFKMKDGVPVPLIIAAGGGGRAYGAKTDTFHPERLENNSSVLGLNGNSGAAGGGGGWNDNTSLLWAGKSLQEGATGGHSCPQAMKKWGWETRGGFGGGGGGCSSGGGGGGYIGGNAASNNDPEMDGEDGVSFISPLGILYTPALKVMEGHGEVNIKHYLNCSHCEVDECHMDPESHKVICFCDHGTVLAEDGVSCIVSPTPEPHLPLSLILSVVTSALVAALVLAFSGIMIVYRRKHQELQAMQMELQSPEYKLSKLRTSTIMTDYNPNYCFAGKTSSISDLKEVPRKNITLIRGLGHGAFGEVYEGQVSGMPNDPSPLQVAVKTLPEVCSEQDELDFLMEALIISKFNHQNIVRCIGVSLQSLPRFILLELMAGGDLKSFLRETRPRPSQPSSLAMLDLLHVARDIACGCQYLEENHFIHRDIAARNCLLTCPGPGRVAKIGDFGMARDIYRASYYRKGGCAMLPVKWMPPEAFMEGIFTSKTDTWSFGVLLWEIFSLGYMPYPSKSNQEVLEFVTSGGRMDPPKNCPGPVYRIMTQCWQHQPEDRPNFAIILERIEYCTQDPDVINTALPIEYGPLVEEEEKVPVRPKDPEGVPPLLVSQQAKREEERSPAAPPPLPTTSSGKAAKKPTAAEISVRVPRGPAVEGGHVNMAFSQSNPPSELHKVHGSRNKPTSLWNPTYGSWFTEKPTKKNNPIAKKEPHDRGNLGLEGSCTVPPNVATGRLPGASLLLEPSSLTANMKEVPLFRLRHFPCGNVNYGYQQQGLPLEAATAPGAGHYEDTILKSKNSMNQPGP

For the compound `COc1cc(N2CCCN(S(C)(=O)=O)CC2)ccc1Nc1nc(Nc2cccc(F)c2C(N)=O)c2cc[nH]c2n1` [Example 207, 2-fluoro-6-{[2-({2-(methyloxy)-4-[4-(methylsulfonyl)hexahydro-1H-1,4-diazepin-1-yl]phenyl}amino)-1H-pyrrolo[2,3-d]pyrimidin-4-yl]amino}benzamide], the figures for the IC50 in assay [1], in assay [2] and in assay [3] were 250 to 1000 nM, 1.26 to 3.98 nM and 250 to 1000 nM, respectively.
On to `COc1cc2c(cc1Nc1nc(Nc3cccc(F)c3C(N)=O)c3cc[nH]c3n1)CN(CCCN(C)C)CC2` [Example 232, 2-[(2-{[2-[3-(dimethylamino)propyl]-6-(methyloxy)-1,2,3,4-tetrahydro-7-isoquinolinyl]amino}-1H-pyrrolo[2,3-d]pyrimidin-4-yl)amino]-6-fluorobenzamide], for which the IC50 was more than 1000 nM in assay [1], 1.26 to 3.98 nM in assay [2] and less than 250 nM in assay [3].
Turning to `COc1cc(N2CCCN(C(C)C)CC2)ccc1Nc1nc(Nc2cccc(F)c2C(N)=O)c2cc[nH]c2n1` [Example 208, 2-fluoro-6-[(2-{[4-[4-(1-methylethyl)hexahydro-1H-1,4-diazepin-1-yl]-2-(methyloxy)phenyl]amino}-1H-pyrrolo[2,3-d]pyrimidin-4-yl)amino]benzamide], the results for the IC50 in assay [1], in assay [2] and in assay [3] were 250 to 1000 nM, 0.251 to 1 nM and less than 250 nM, respectively.
Turning to `COc1cc2c(cc1Nc1nc(Nc3cc(F)cc(F)c3C(N)=O)c3cc[nH]c3n1)N(C(=O)CN1CCCC1)CCC2` [Example 219, 2,4-difluoro-6-[(2-{[6-(methyloxy)-1-(1-pyrrolidinylacetyl)-1,2,3,4-tetrahydro-7-quinolinyl]amino}-1H-pyrrolo[2,3-d]pyrimidin-4-yl)amino]benzamide], the 50% inhibitory concentration (IC50) in assay [1] is less than 250 nM; in assay [2], 0.251 to 1 nM; in assay [3] it was less than 250 nM.
As to `COc1cc2c(cc1Nc1nc(Nc3cccc(F)c3C(N)=O)c3cc[nH]c3n1)NCC2` [Example 140, 2-fluoro-6-[(2-{[5-(methyloxy)-2,3-dihydro-1H-indol-6-yl]amino}-1H-pyrrolo[2,3-d]pyrimidin-4-yl)amino]benzamide], the half-inhibitory concentration (IC50) in assay [1] is 250 to 1000 nM; in assay [2], 5.01 to 200 nM; in assay [3], more than 1000 nM.
As for `CNC(=O)c1c(F)cccc1Nc1nc(Nc2cc3c(cc2OC)CCCN3C(=O)[C@@H]2CCCN2C)nc2[nH]ccc12` [Example 202, 2-fluoro-N-methyl-6-[(2-{[6-(methyloxy)-1-(1-methyl-L-prolyl)-1,2,3,4-tetrahydro-7-quinolinyl]amino}-1H-pyrrolo[2,3-d]pyrimidin-4-yl)amino]benzamide], the 50% inhibitory concentration (IC50) in assay [1] is 250 to 1000 nM; in assay [2], 5.01 to 200 nM; in assay [3], less than 250 nM.
For the compound `CCN(CC)CC(=O)N1CCc2cc(OC)c(Nc3nc(Nc4cccc(F)c4C(=O)NC)c4cc[nH]c4n3)cc21` [Example 137, 2-[(2-{[1-(N,N-diethylglycyl)-5-(methyloxy)-2,3-dihydro-1H-indol-6-yl]amino}-1H-pyrrolo[2,3-d]pyrimidin-4-yl)amino]-6-fluoro-N-methylbenzamide], the IC50 in assay [1] is 250 to 1000 nM; in assay [2], 5.01 to 200 nM; in assay [3], less than 250 nM.
On to `CNC(=O)c1cc2ccccc2cc1Nc1nc(Nc2cc3c(cc2OC)CCN3C(=O)CN(C)C)nc2[nH]ccc12` [Example 125, 3-[(2-{[1-(N,N-dimethylglycyl)-5-(methyloxy)-2,3-dihydro-1H-indol-6-yl]amino}-1H-pyrrolo[2,3-d]pyrimidin-4-yl)amino]-N-methyl-2-naphthalenecarboxamide], for which the IC50 is 250 to 1000 nM in assay [1], 5.01 to 200 nM in assay [2] and less than 250 nM in assay [3].
For `CCCN1CCC=C(c2ccc(Nc3nc(Nc4ccccc4C(N)=O)c4cc[nH]c4n3)c(OC)c2)C1` [Example 2, 2-[(2-{[2-(methyloxy)-4-(1-propyl-1,2,5,6-tetrahydro-3-pyridinyl)phenyl]amino}-1H-pyrrolo[2,3-d]pyrimidin-4-yl)amino]benzamide], the figures for the half-inhibitory concentration (IC50) in assay [1], in assay [2] and in assay [3] were less than 250 nM, 0.251 to 1 nM and less than 250 nM, respectively.
In the case of `CCNC(=O)c1c(F)cc(F)cc1Nc1nc(Nc2cc3c(cc2OC)CCN3C(=O)CN(C)C)nc2[nH]ccc12` [Example 151, 2-[(2-{[1-(N,N-dimethylglycyl)-5-(methyloxy)-2,3-dihydro-1H-indol-6-yl]amino}-1H-pyrrolo[2,3-d]pyrimidin-4-yl)amino]-N-ethyl-4,6-difluorobenzamide], the IC50 in assay [1] is 250 to 1000 nM; in assay [2], 0.251 to 1 nM; in assay [3], 250 to 1000 nM.
`CCCN1CCC(N2CCc3cc(OC)c(Nc4nc(Nc5cccc(F)c5C(N)=O)c5cc[nH]c5n4)cc3C2)CC1` [Example 122, 2-fluoro-6-[(2-{[6-(methyloxy)-2-(1-propyl-4-piperidinyl)-1,2,3,4-tetrahydro-7-isoquinolinyl]amino}-1H-pyrrolo[2,3-d]pyrimidin-4-yl)amino]benzamide]: the IC50 was more than 1000 nM in assay [1], 5.01 to 200 nM in assay [2] and less than 250 nM in assay [3].
With `COc1cc2c(cc1Nc1nc(Nc3cccc(F)c3C(N)=O)c3cc[nH]c3n1)N(C(=O)CCN(C)C)CC2` [Example 118, 2-[(2-{[1-(N,N-dimethyl-b-alanyl)-5-(methyloxy)-2,3-dihydro-1H-indol-6-yl]amino}-1H-pyrrolo[2,3-d]pyrimidin-4-yl)amino]-6-fluorobenzamide], the results for the IC50 in assay [1], in assay [2] and in assay [3] were 250 to 1000 nM, 5.01 to 200 nM and less than 250 nM, respectively.
Taken in the same sequence, the figures for `COc1cc2c(cc1Nc1nc(Nc3cccc(F)c3C(N)=O)c3cc[nH]c3n1)CN(C(=O)CCN1CCN(C(C)C)CC1)CC2` [Example 229, 2-fluoro-6-[(2-{[2-{3-[4-(1-methylethyl)-1-piperazinyl]propanoyl}-6-(methyloxy)-1,2,3,4-tetrahydro-7-isoquinolinyl]amino}-1H-pyrrolo[2,3-d]pyrimidin-4-yl)amino]benzamide] were more than 1000 nM, 5.01 to 200 nM and 250 to 1000 nM.
Taken in the same sequence, the figures for `COc1cc2c(cc1Nc1nc(Nc3cccc(F)c3C(N)=O)c3cc[nH]c3n1)N(C(=O)CN1CCN(C(C)C)CC1)CC2` [Example 186, 2-fluoro-6-[(2-{[1-{[4-(1-methylethyl)-1-piperazinyl]acetyl}-5-(methyloxy)-2,3-dihydro-1H-indol-6-yl]amino}-1H-pyrrolo[2,3-d]pyrimidin-4-yl)amino]benzamide] were more than 1000 nM, 5.01 to 200 nM and 250 to 1000 nM.
Taken in the same sequence, the figures for `COc1cc2c(cc1Nc1nc(Nc3cccc(F)c3C(N)=O)c3cc[nH]c3n1)N(C(=O)[C@@H]1CCCN1C)CC2` [Example 147, 2-fluoro-6-[(2-{[5-(methyloxy)-1-(1-methyl-L-prolyl)-2,3-dihydro-1H-indol-6-yl]amino}-1H-pyrrolo[2,3-d]pyrimidin-4-yl)amino]benzamide] were 250 to 1000 nM, 5.01 to 200 nM and less than 250 nM.
Regarding `COc1cc2c(cc1Nc1nc(Nc3cccc(F)c3C(N)=O)c3cc[nH]c3n1)CN(C(=O)CCN1CCOCC1)CC2` [Example 231, 2-fluoro-6-{[2-({6-(methyloxy)-2-[3-(4-morpholinyl)propanoyl]-1,2,3,4-tetrahydro-7-isoquinolinyl}amino)-1H-pyrrolo[2,3-d]pyrimidin-4-yl]amino}benzamide], the IC50 was more than 1000 nM in assay [1], 5.01 to 200 nM in assay [2] and 250 to 1000 nM in assay [3].
Taken in the same sequence, the figures for `CNC(=O)c1c(F)cc(F)cc1Nc1nc(Nc2cc3c(cc2OC)CCCN3C(=O)CN(C)C)nc2[nH]ccc12` [Example 179, 2-[(2-{[1-(N,N-dimethylglycyl)-6-(methyloxy)-1,2,3,4-tetrahydro-7-quinolinyl]amino}-1H-pyrrolo[2,3-d]pyrimidin-4-yl)amino]-4,6-difluoro-N-methylbenzamide] were less than 250 nM, 0.251 to 1 nM and less than 250 nM.
Taken in the same sequence, the figures for `CCCN(CCC)[C@@H](C)C(=O)N1CCc2cc(OC)c(Nc3nc(Nc4cccc(F)c4C(N)=O)c4cc[nH]c4n3)cc21` [Example 192, 2-[(2-{[1-(N,N-dipropyl-L-alanyl)-5-(methyloxy)-2,3-dihydro-1H-indol-6-yl]amino}-1H-pyrrolo[2,3-d]pyrimidin-4-yl)amino]-6-fluorobenzamide] were 250 to 1000 nM, 5.01 to 200 nM and less than 250 nM.
For `COc1cc2c(cc1Nc1nc(Nc3cc(F)cc(F)c3C(N)=O)c3cc[nH]c3n1)N(C(=O)CN(C)C)CCC2` [Example 178, 2-[(2-{[1-(N,N-dimethylglycyl)-6-(methyloxy)-1,2,3,4-tetrahydro-7-quinolinyl]amino}-1H-pyrrolo[2,3-d]pyrimidin-4-yl)amino]-4,6-difluorobenzamide], the IC50 is less than 250 nM in assay [1], 0.251 to 1 nM in assay [2] and less than 250 nM in assay [3].
As for `CNC(=O)c1c(F)cccc1Nc1nc(Nc2cc3c(cc2OC)CCN3C(C)=O)nc2[nH]ccc12` [Example 135, 2-[(2-{[1-acetyl-5-(methyloxy)-2,3-dihydro-1H-indol-6-yl]amino}-1H-pyrrolo[2,3-d]pyrimidin-4-yl)amino]-6-fluoro-N-methylbenzamide], the IC50 in assay [1] was more than 1000 nM; in assay [2], 1.26 to 3.98 nM; in assay [3] it was 250 to 1000 nM.
Regarding `COc1cc2c(cc1Nc1nc(Nc3cc(Cl)cc(F)c3C(N)=O)c3cc[nH]c3n1)N(C(=O)CN1CCCC1)CC2` [Example 175, 4-chloro-2-fluoro-6-[(2-{[5-(methyloxy)-1-(1-pyrrolidinylacetyl)-2,3-dihydro-1H-indol-6-yl]amino}-1H-pyrrolo[2,3-d]pyrimidin-4-yl)amino]benzamide], the IC50 is 250 to 1000 nM in assay [1], 1.26 to 3.98 nM in assay [2] and less than 250 nM in assay [3].

The values are drawn from patent publication US7981903B2, “2-[2-{phenylamino}-1H-pyrrolo[2,3-D]pyrimidin-4-yl)amino] benzamide derivatives as IGF-1R inhibitors for the treatment of cancer” (GlaxoSmithKline LLC, priority 2007, dated 2011).
